Results taken from publication PMC11420776 (RSC Advances, 2024).
Entries after “also recorded” stand apart in the source; their conditions may differ.

Legend:
CCRF-CEM (leukemia) = assay: NCI 60-cell one-dose antiproliferative screen; type: cell-based, human; conditions: one dose 10 μM
RPMI-8226 (leukemia) = assay: NCI 60-cell one-dose antiproliferative screen; type: cell-based, human; conditions: one dose 10 μM
[1] = system: A549/ATCC (NSC lung cancer); assay: NCI 60-cell one-dose antiproliferative screen; type: cell-based, human; conditions: one dose 10 μM
EKVX (NSC lung cancer) = assay: NCI 60-cell one-dose antiproliferative screen; type: cell-based, human; conditions: one dose 10 μM
HOP-62 (NSC lung cancer) = assay: NCI 60-cell one-dose antiproliferative screen; type: cell-based, human; conditions: one dose 10 μM
[2] = system: NCI-H322M (NSC lung cancer); assay: NCI 60-cell one-dose antiproliferative screen; type: cell-based, human; conditions: one dose 10 μM
[3] = system: NCI-H460 (NSC lung cancer); assay: NCI 60-cell one-dose antiproliferative screen; type: cell-based, human; conditions: one dose 10 μM
[4] = system: NCI-H522 (NSC lung cancer); assay: NCI 60-cell one-dose antiproliferative screen; type: cell-based, human; conditions: one dose 10 μM
COLO-205 (colon cancer) = assay: NCI 60-cell one-dose antiproliferative screen; type: cell-based, human; conditions: one dose 10 μM
HCC-2998 (colon cancer) = assay: NCI 60-cell one-dose antiproliferative screen; type: cell-based, human; conditions: one dose 10 μM
HCT-116 (colon cancer) = assay: NCI 60-cell one-dose antiproliferative screen; type: cell-based, human; conditions: one dose 10 μM
HCT-15 (colon cancer) = assay: NCI 60-cell one-dose antiproliferative screen; type: cell-based, human; conditions: one dose 10 μM
HT29 (colon cancer) = assay: NCI 60-cell one-dose antiproliferative screen; type: cell-based, human; conditions: one dose 10 μM
KM12 (colon cancer) = assay: NCI 60-cell one-dose antiproliferative screen; type: cell-based, human; conditions: one dose 10 μM
SW-620 (colon cancer) = assay: NCI 60-cell one-dose antiproliferative screen; type: cell-based, human; conditions: one dose 10 μM
SF-295 (CNS cancer) = assay: NCI 60-cell one-dose antiproliferative screen; type: cell-based, human; conditions: one dose 10 μM
SF-539 (CNS cancer) = assay: NCI 60-cell one-dose antiproliferative screen; type: cell-based, human; conditions: one dose 10 μM
SNB-19 (CNS cancer) = assay: NCI 60-cell one-dose antiproliferative screen; type: cell-based, human; conditions: one dose 10 μM
SNB-75 (CNS cancer) = assay: NCI 60-cell one-dose antiproliferative screen; type: cell-based, human; conditions: one dose 10 μM
U251 (CNS cancer) = assay: NCI 60-cell one-dose antiproliferative screen; type: cell-based, human; conditions: one dose 10 μM
MALME-3M (melanoma) = assay: NCI 60-cell one-dose antiproliferative screen; type: cell-based, human; conditions: one dose 10 μM
M14 (melanoma) = assay: NCI 60-cell one-dose antiproliferative screen; type: cell-based, human; conditions: one dose 10 μM
SK-MEL-28 (melanoma) = assay: NCI 60-cell one-dose antiproliferative screen; type: cell-based, human; conditions: one dose 10 μM
UACC-257 (melanoma) = assay: NCI 60-cell one-dose antiproliferative screen; type: cell-based, human; conditions: one dose 10 μM
UACC-62 (melanoma) = assay: NCI 60-cell one-dose antiproliferative screen; type: cell-based, human; conditions: one dose 10 μM
IGROV1 (ovarian cancer) = assay: NCI 60-cell one-dose antiproliferative screen; type: cell-based, human; conditions: one dose 10 μM
OVCAR-4 (ovarian cancer) = assay: NCI 60-cell one-dose antiproliferative screen; type: cell-based, human; conditions: one dose 10 μM
OVCAR-5 (ovarian cancer) = assay: NCI 60-cell one-dose antiproliferative screen; type: cell-based, human; conditions: one dose 10 μM
SK-OV-3 (ovarian cancer) = assay: NCI 60-cell one-dose antiproliferative screen; type: cell-based, human; conditions: one dose 10 μM
786-0 (renal cancer) = assay: NCI 60-cell one-dose antiproliferative screen; type: cell-based, human; conditions: one dose 10 μM
A498 (renal cancer) = assay: NCI 60-cell one-dose antiproliferative screen; type: cell-based, human; conditions: one dose 10 μM
ACHN (renal cancer) = assay: NCI 60-cell one-dose antiproliferative screen; type: cell-based, human; conditions: one dose 10 μM
CAKI-1 (renal cancer) = assay: NCI 60-cell one-dose antiproliferative screen; type: cell-based, human; conditions: one dose 10 μM
RXF 393 (renal cancer) = assay: NCI 60-cell one-dose antiproliferative screen; type: cell-based, human; conditions: one dose 10 μM
SN12C (renal cancer) = assay: NCI 60-cell one-dose antiproliferative screen; type: cell-based, human; conditions: one dose 10 μM
TK-10 (renal cancer) = assay: NCI 60-cell one-dose antiproliferative screen; type: cell-based, human; conditions: one dose 10 μM
UO-31 (renal cancer) = assay: NCI 60-cell one-dose antiproliferative screen; type: cell-based, human; conditions: one dose 10 μM
PC-3 (prostate cancer) = assay: NCI 60-cell one-dose antiproliferative screen; type: cell-based, human; conditions: one dose 10 μM
MCF7 (breast cancer) = assay: NCI 60-cell one-dose antiproliferative screen; type: cell-based, human; conditions: one dose 10 μM
[5] = system: MDA-MB-231/ATCC (breast cancer); assay: NCI 60-cell one-dose antiproliferative screen; type: cell-based, human; conditions: one dose 10 μM
HS 578T (breast cancer) = assay: NCI 60-cell one-dose antiproliferative screen; type: cell-based, human; conditions: one dose 10 μM
T-47D (breast cancer) = assay: NCI 60-cell one-dose antiproliferative screen; type: cell-based, human; conditions: one dose 10 μM
[6] = system: MDA-MB-468 (breast cancer); assay: NCI 60-cell one-dose antiproliferative screen; type: cell-based, human; conditions: one dose 10 μM
[7] = system: 60 human tumor cell lines; assay: NCI 60-cell one-dose antiproliferative screen, whole panel; type: cell-based; conditions: Homo sapiens, 60 cell, read-out: Mean inhibition (mean GI%)
[8] = system: breast cancer cell line MCF7; assay: MTT cytotoxicity assay, MCF7; type: cell-based, human
[9] = MTT cytotoxicity assay, MCF10a; type: cell-based; conditions: human, MCF10a normal mammary epithelial cells
MCF7 cells = assay: Cell cycle analysis by flow cytometry; type: cell-based, human
[10] = MCF7, 4g at IC50 (0.56 μM), 24 h
[11] = MCF7, 4g at IC50 (0.56 μM), relative to DMSO control

COc1ccc(-c2nnc3ccc(NN=Cc4ccc(O)cc4)nn23)cc1 [Compound 4g, 4-((2-(3-(4-Methoxyphenyl)-[1,2,4]triazolo[4,3-b]pyridazin-6-yl)hydrazono)methyl)phenol]
GI% (CCRF-CEM (leukemia)): 85.88%
GI% (RPMI-8226 (leukemia)): 86.88%
GI% [1]: 41.49%
GI% (EKVX (NSC lung cancer)): 62.20%
GI% (HOP-62 (NSC lung cancer)): — (— GI% is below 15%)
GI% [2]: 38.06%
GI% [3]: 55.73%
GI% [4]: 53.35%
GI% (COLO-205 (colon cancer)): 43.51%
GI% (HCC-2998 (colon cancer)): 85.07%
GI% (HCT-116 (colon cancer)): 72.71%
GI% (HCT-15 (colon cancer)): 73.30%
GI% (HT29 (colon cancer)): — (— GI% is below 15%)
GI% (KM12 (colon cancer)): 71.51%
GI% (SW-620 (colon cancer)): 32.85%
GI% (SF-295 (CNS cancer)): 56.41%
GI% (SF-539 (CNS cancer)): 63.61%
GI% (SNB-19 (CNS cancer)): 32.46%
GI% (SNB-75 (CNS cancer)): 46.38%
GI% (U251 (CNS cancer)): 32.41%
GI% (MALME-3M (melanoma)): 35.83%
GI% (M14 (melanoma)): 43.64%
GI% (SK-MEL-28 (melanoma)): 30.86%
GI% (UACC-257 (melanoma)): 17.70%
GI% (UACC-62 (melanoma)): 41.19%
GI% (IGROV1 (ovarian cancer)): 60.66%
GI% (OVCAR-4 (ovarian cancer)): 52.11%
GI% (OVCAR-5 (ovarian cancer)): — (— GI% is below 15%)
GI% (SK-OV-3 (ovarian cancer)): — (— GI% is below 15%)
GI% (786-0 (renal cancer)): 77.10%
GI% (A498 (renal cancer)): — (— GI% is below 15%)
GI% (ACHN (renal cancer)): 56.52%
GI% (CAKI-1 (renal cancer)): 78.54%
GI% (RXF 393 (renal cancer)): 57.34%
GI% (SN12C (renal cancer)): 57.71%
GI% (TK-10 (renal cancer)): 61.05%
GI% (UO-31 (renal cancer)): 69.74%
GI% (PC-3 (prostate cancer)): 59.52%
GI% (MCF7 (breast cancer)): 86.77%
GI% [5]: 39.44%
GI% (HS 578T (breast cancer)): 53.18%
GI% (T-47D (breast cancer)): 54.64%
GI% [6]: 51.76%
inhibition at 10 µM [7]: 55.8%
IC50 ([8]; Homo sapiens, MCF7, 72 h, read-out: Cytotoxicity IC50 MCF7): 0.56 ± 0.03 µM
Selectivity index ([8]; IC50 on normal cells (MCF10a) / IC50 on cancer cells (MCF7)): 19.11
IC50 at 72 h [9]: 10.7 ± 0.56 µM
%G0-G1 (MCF7 cells; [10]): 52.94%
%G2/M (MCF7 cells; [10]): 4.13%
drop in the cell population at G0/G1 phase (MCF7 cells; [11]): 10.48%
drop in the cell population at G2/M phase (MCF7 cells; [11]): 46.84%
increase in the proportion of cells in the S phase (MCF7 cells; MCF7, 4g at IC50 (0.56 μM), versus control (DMSO)): 1.29 fold
cell cycle arrest phase (MCF7 cells; MCF7 cells): arrest in the S stage of the cell cycle; also recorded: arrest in the proliferation of MCF7 cells in the S phase; also recorded: ceased the proliferation of MCF-7 cancer cells in the S phase
